A short description of data set [1]: Solubility of compound incubated for 5 mins by absorbance based assay. In kind it is physicochemical.
Data set [2] concerns MCF7. The data set is described as follows: Inhibition of cell viability in human MCF7 cells at 100 uM incubated for 72 hrs by resazurin based assay. The format is functional.
Data set [3] relates to MDA-MB-468. The data set can be described thus: Inhibition of cell viability in human MDA-MB-468 cells at 100 uM incubated for 72 hrs by resazurin based assay. The format is functional.
Data set [4] relates to MDA-MB-231. The data set can be described thus: Inhibition of cell viability in human MDA-MB-231 cells at 100 uM incubated for 72 hrs by resazurin based assay. In kind it is functional. A general note: Alamar Blue is a resazurin reagent that responds to reducing activity.
Data set [5] deals with MDA-MB-468. The data set can be described thus: Induction of cell death in human MDA-MB-468 cells at 0.05 to 200 uM incubated for 72 hrs by resazurin based assay. In kind it is functional. Particulars: dose 0.05-200 µM.
Data set [6] has as its system MDA-MB-231. The data set can be described thus: Induction of cell death in human MDA-MB-231 cells at 0.05 to 200 uM incubated for 72 hrs by resazurin based assay. Particulars: dose 0.05-200 µM. In kind it is functional.
In data set [7] the test system is MCF7. The data set is described as follows: Induction of cell death in human MCF7 cells at 0.05 to 200 uM incubated for 72 hrs by resazurin based assay. The format is functional. Particulars: dose 0.05-200 µM.
The test system of data set [8] is MDA-MB-468. The data set can be described thus: Inhibition of cell viability in human MDA-MB-468 cells upto 100 uM incubated for 72 hrs by resazurin based assay relative to control. The format is functional. The conditions noted are these: up to 100 µM.
Data set [9] has as its system MDA-MB-231. The data set can be described thus: Inhibition of cell viability in human MDA-MB-231 cells upto 100 uM incubated for 72 hrs by resazurin based assay relative to control. The format is functional. The conditions noted are these: up to 100 µM.
In data set [10] the test system is MCF7. The data set is described as follows: Inhibition of cell viability in human MCF7 cells upto 100 uM incubated for 72 hrs by resazurin based assay relative to control. The format is functional. The conditions noted are these: up to 100 µM.
Data set [11] deals with MDA-MB-468. The data set is described as follows: Cytotoxicity against human MDA-MB-468 cells assessed as cell viability at 100 uM incubated for 72 hrs by resazurin based assay relative to control. In kind it is functional. The conditions noted are these: read-out: Activity.
Data set [12] relates to MDA-MB-231. The data set can be described thus: Cytotoxicity against human MDA-MB-231 cells assessed as cell viability at 100 uM incubated for 72 hrs by resazurin based assay relative to control. In kind it is functional. Particulars: read-out: Activity.
In data set [13] the test system is MCF7. The data set can be described thus: Cytotoxicity against human MCF7 cells assessed as cell viability at 100 uM incubated for 72 hrs by resazurin based assay relative to control. Particulars: read-out: Activity. In kind it is functional.
For data set [14], the target named is T1, Dihydrofolate reductase (Homo sapiens) (UniProt P00374).
T1 sequence (whole entry): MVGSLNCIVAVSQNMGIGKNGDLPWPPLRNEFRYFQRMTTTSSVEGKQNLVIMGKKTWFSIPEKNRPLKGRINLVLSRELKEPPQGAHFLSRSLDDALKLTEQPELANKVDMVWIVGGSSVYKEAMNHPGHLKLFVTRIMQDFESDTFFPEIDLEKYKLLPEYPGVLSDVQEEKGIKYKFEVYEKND
Particulars: MDA-MB-468, dose 10.0 nM, time 24.0 hrs.

The target of data set [15] is T1, Dihydrofolate reductase (Homo sapiens). The conditions noted are these: MDA-MB-468, dose 1.0 nM, time 24.0 hrs.

In brackets after ≈: the same amount, converted by molar mass. Activity calls are given as the source filed them. The calls are words filed in the database; no cut-off is given here. Where only a bound is given, the exact number is not on record here.

Usually solubility stands for the concentration that dissolves in the medium under given conditions. Lower therefore signals little dissolved substance. In general, inhibition refers to the relative decrease from the control value, in per cent.

Regarding `COc1cc(-c2cnc(N)nc2N)ccc1C`, the solubility at 5 min in data set [1] is > 100 µM.
For the compound `CC(C)c1ccc(-c2cnc(N)nc2N)cc1`, the inhibition entry in data set [2] was “inactive”. The solubility at 5 min in [1] was > 100 µM.
For `Cc1ccc(-c2cnc(N)nc2N)cc1`, in data set [2], the inhibition result is “inactive”.
Still for that read-out and setting: to `Nc1ncc(-c2ccc(Cl)c(F)c2)c(N)n1` belongs “inactive”.
`Nc1ncc(-c2cccc(Cl)c2)c(N)n1`: in data set [1], the solubility at 5 min was > 100 µM.
Turning to `CC(C)(C)c1ccc(-c2cnc(N)nc2N)cc1`, the inhibition entry in data set [3] was “Active”.
For `Nc1ncc(-c2ccc(Cl)c([N+](=O)[O-])c2)c(N)n1`, the solubility at 5 min in data set [1] was > 100 µM.
In the case of `Nc1ncc(-c2ccc(N3CCCC3)c([N+](=O)[O-])c2)c(N)n1`, the inhibition entry in [3], in data set [4] and in data set [2] was “Active” in each case. Further, the result in data set [5], in [6] and in data set [7] was Active. Besides, the solubility at 5 min in data set [1] was > 100 µM.
Consider `NCCCCCCNc1ccc(-c2cnc(N)nc2N)cc1[N+](=O)[O-]`, for which the inhibition entry in [3], in [4] and in data set [2] was “Active” in each case. In addition, the outcome in [5], in [6] and in data set [7] was Active. The solubility at 5 min in data set [1] is > 100 µM.
Regarding `CN(Cc1ccccc1)c1ccc(-c2cnc(N)nc2N)cc1[N+](=O)[O-]`, the inhibition entry in data set [2] is “inactive”. Besides, in [1], the solubility at 5 min is ~10 µM (≈ 3.5 µg/mL).
As to `CCc1nc(N)nc(N)c1-c1ccc(Cl)cc1` [PYRIMETHAMINE], the “inhibition (INH)” value in data set [8], in data set [9] and in data set [10] was ~50% each time. Moreover, the viability at 100 µM in data set [11], in data set [12] and in data set [13] was ~50% throughout. Also, the solubility at 5 min in data set [1] is > 100 µM. Further, the inhibition result in data set [14] was “Active”. Also, the inhibition in data set [15] is 40%.
On to `Nc1ncc(-c2ccc3ccccc3c2)c(N)n1`, for which the inhibition entry in data set [3], in data set [4] and in data set [2] was “Active” each time. The outcome in data set [5], in [6] and in [7] was Active. Moreover, in [1], the solubility at 5 min is > 100 µM.
With `Nc1ncc(-c2ccc(Cl)c(Cl)c2)c(N)n1`, in data set [1], the solubility at 5 min was > 100 µM.
Regarding `Nc1ncc(-c2ccc(F)cc2Br)c(N)n1`, the inhibition result in data set [3], in data set [4] and in data set [2] was “inactive” throughout.
Regarding `COc1ccc(CNc2ccc(-c3cnc(N)nc3N)cc2[N+](=O)[O-])cc1`, the inhibition result in data set [3], in [4] and in data set [2] was “Active” throughout. For the same compound, the outcome in data set [5], in data set [6] and in [7] was Active. In addition, the solubility at 5 min in data set [1] is ~10 µM (≈ 3.66 µg/mL).

These data come from ChEMBL document CHEMBL5537142 (Eur J Med Chem, 2024).
